In ChEMBL document CHEMBL6134907, “Synthesis of 5,9- and 5,8-Diaminoalkoxy Substituted Benzophenanthridinone Analogues as Tyrosyl-DNA Phosphodiesterase 1 Inhibitors and Their Radiosensitizing Activity” (J Med Chem, 2025):
Active and inactive are the calls of the source. The rule behind the calls is not given here.

What was measured:
HCT-116 [1] = assay: Radiosensitizing activity in human HCT-116 cells assessed as induction of 2 GY ionizing radiation (IR) induced cell killing effect; format: functional, cell-based
SW480 = assay: Synergistic cytotoxicity against human SW480 cells assessed as combination index at 5 uM incubated for 48 hrs in presence of 2GY ionizing radiation (IR); format: functional
HGC-27 = assay: Radiosensitizing activity in human HGC-27 cells assessed as sensitization of 2 GY ionizing radiation induced decrease in cell survival by colony formation assay; format: functional, cell-based
HeLa = assay: Radiosensitizing activity in human HeLa cells assessed as sensitization of 2 GY ionizing radiation induced decrease in cell survival by colony formation assay; format: functional, cell-based
[2] = AUC infinity in male Sprague-Dawley rat at 1 mg/kg, iv measured up to 24 hrs by LCMS-MS analysis; format: ADME, organism-based; settings: in vivo
[3] = Cmax in male Sprague-Dawley rat at 5 mg/kg, IG measured up to 24 hrs by LCMS-MS analysis; format: ADME, organism-based; settings: in vivo, po
[4] = MRT infinity in male Sprague-Dawley rat at 5 mg/kg, IG measured up to 24 hrs by LCMS-MS analysis; format: ADME, organism-based; settings: in vivo, po
[5] = Oral bioavailability in male Sprague-Dawley rat at 5 mg/kg measured up to 24 hrs by LCMS-MS analysis; format: ADME, organism-based; settings: in vivo
HCT-116 [6] = assay: In vivo radiosensitizing activity in human HCT-116 cells xenografted in BALB/c mouse assessed as sensitization of 1 GY ionizing radiation induced tumor growth inhibition at 10 mg/kg, ip every day for 14 days radiated for every 2 days once; format: functional, organism-based; settings: time 14.0 day
HCT-116 [7] = assay: In vivo radiosensitizing activity in human HCT-116 cells xenografted in BALB/c mouse assessed as sensitization of 1 GY ionizing radiation induced reduction in tumor weight at 1 mg/kg, ip every day for 14 days radiated for every 2 days once (reference value: 35%); format: functional; parameters: scale not given: the % may be the effect or the level left; settings: time 14 day
[8] = Toxicity in BALB/c mouse xenografted with human HCT-116 cells assessed as change in liver weight at 1 to 10 mg/kg, ip every day for 14 days; format: organism-based; settings: in vivo, 336 h, dose 1-10 mg/kg, time 14 day
[9] = Toxicity in BALB/c mouse xenografted with human HCT-116 cells assessed as change in heart weight at 1 to 10 mg/kg, ip every day for 14 days radiated for every 2 days once; format: organism-based; settings: in vivo, 336 h, dose 1-10 mg/kg, time 14 day
HCT-116 [10] = assay: Synergistic cytotoxicity against human HCT116 cells assessed as combination index at 1 uM incubated for 48 hrs in presence of 2GY ionizing radiation (IR); format: functional
HCT-116 [11] = assay: Reduction of XRCC4 expression in wild type human HCT-116 cells assessed as reduction in protein level at 5 to 10 uM measured after 24 hrs by Western blot analysis; format: functional, cell-based; settings: dose 5-10 µM
HCT-116 [12] = assay: Reduction of XRCC4 expression in wild type human HCT-116 cells assessed as reduction in mRNA level at 5 to 10 uM radiated with 4 GY ionizing radiation (IR) measured after 24 hrs by qRT-PCR analysis; format: functional, cell-based; settings: dose 5-10 µM
HCT-116 [13] = assay: Effect on Ku70/80 expression in wild type human HCT-116 cells assessed as change in mRNA level at 5 to 10 uM measured after 24 hrs by qRT-PCR analysis; format: functional, cell-based; settings: dose 5-10 µM
HCT-116 [14] = assay: Effect on Ku70/80 expression in wild type human HCT-116 cells assessed as change in protein level at 5 to 10 uM radiated with 4 GY ionizing radiation (IR) measured after 24 hrs by Western blot analysis; format: functional, cell-based; settings: dose 5-10 µM
HCT-116 [15] = assay: Effect on Lig4 expression in wild type human HCT-116 cells assessed as change in mRNA level at 5 to 10 uM measured after 24 hrs by qRT-PCR analysis; format: functional, cell-based; settings: dose 5-10 µM
HCT-116 [16] = assay: Reduction in recruitment of XRCC4 at damage site of human HCT-116 cells at 5 uM measured after 3 hrs by fluorescence colocalization assay; format: functional, cell-based
HCT-116 [17] = assay: Induction of ionizing radiation (IR) induced gamma-H2AX level in human HCT-116 cells at 5 uM measured after 3 hrs by Western blot analysis; format: functional, cell-based
HCT-116 [18] = assay: Induction of PIG3 transcription level in human HCT-116 cells measured after 24 hrs treated with 4 GY ionizing radiation (IR); format: functional, cell-based; settings: dose 5-10 µM
HCT-116 [19] = assay: Induction of ROS generation in human HCT-116 cells assessed as fold increase in intracellular ROS level at 5 uM under 4GY ionizing radiation (IR) measured after 20 mins by ELIASA analysis; format: functional
HCT-116 [20] = assay: Induction of ROS generation in human HCT-116 cells assessed as fold increase in intracellular ROS level at 10 uM under […] ionizing radiation (IR) measured after 20 mins by ELIASA analysis; format: functional
HCT-116 [21] = assay: Induction of 4GY ionizing radiation (IR) induced ROS production in human HCT-116 cells assessed as mitochondrial dysfunction by measuring mitochondrial membrane potential loss at 10 uM measured after 24 hrs by flow cytometry; format: functional, cell-based
HCT-116 [22] = assay: Induction of cell cycle arrest in human HCT-116 cells assessed as accumulation of cells at G0/G1 phase at 5 uM measured after 24 hrs by Propidium iodide (PI) staining based assay (reference value: 69.35%); format: functional
HCT-116 [23] = assay: Induction of cell cycle arrest in human HCT-116 cells assessed as accumulation of cells at G2/M phase at 5 uM measured after 24 hrs by Propidium iodide (PI) staining based assay (reference value: 15.77%); format: functional
HCT-116 [24] = assay: Induction of cell cycle arrest in human HCT-116 cells assessed as accumulation of cells at S phase at 10 uM measured after 24 hrs by Propidium iodide (PI) staining based assay (reference value: 13.96%); format: functional
HCT-116 [25] = assay: Induction of 4GY ionizing radiation (IR) induced apoptosis in human HCT-116 cells assessed as viable cells at 5 uM measured after 24 hrs by FITC Annexin V/PI apoptosis detection assay (reference value: 66.88%); format: functional; settings: read-out: Activity
HCT-116 [26] = assay: Induction of 4GY ionizing radiation (IR) induced apoptosis in human HCT-116 cells assessed as early apoptotic cells at 5 uM measured after 24 hrs by FITC Annexin V/PI apoptosis detection assay (reference value: 17.50%); format: functional
HCT-116 [27] = assay: Induction of 4GY ionizing radiation (IR) induced apoptosis in human HCT-116 cells assessed as viable cells at 10 uM measured after 24 hrs by FITC Annexin V/PI apoptosis detection assay (reference value: 66.88%); format: functional; settings: read-out: Activity
HCT-116 [28] = assay: Induction of 4GY ionizing radiation (IR) induced apoptosis in human HCT-116 cells assessed as late apoptotic cells at 10 uM measured after 24 hrs by FITC Annexin V/PI apoptosis detection assay (reference value: 14.32%); format: functional
HCT-116 [29] = assay: Induction of apoptosis in human HCT-116 cells assessed as induction of 4GY ionizing radiation (IR) induced cleaved PARP at 5 uM measured after 24 hrs by Western blot analysis; format: functional, cell-based
HCT-116 [30] = assay: Induction of apoptosis in human HCT-116 cells assessed as induction of 4GY ionizing radiation (IR) induced cleaved Caspase-7 at 5 uM measured after 24 hrs by Western blot analysis; format: functional, cell-based
HCT-116 [31] = assay: Induction of apoptosis in human HCT-116 cells assessed as induction of 4GY ionizing radiation (IR) induced cleaved Caspase-3 at 5 uM measured after 24 hrs by Western blot analysis; format: functional, cell-based

## COc1cc2c(=O)n(CCN(C)C)c3c4cc5c(cc4ccc3c2cc1OCCN1CCOCC1)OCO5
HCT-116 [1]
  Activity: Active
SW480
  CI: <0.3
HGC-27
  Activity: inactive
HeLa
  Activity: inactive
[2]
  AUC(0-inf): 291 ng·h/mL
[3]
  Cmax: 70.3 ng/mL
[4]
  MRT inf: 7.06 h
[5]
  bioavailability: 63.1%
HCT-116 [6]
  TGI: Active
HCT-116 [7]
  Activity: 60%
[8]
  Activity: Non-toxic
[9]
  Activity: Non-toxic
HCT-116 [10]
  Activity: 28%
HCT-116 [11]
  Activity: Active
HCT-116 [12]
  Activity: Active
HCT-116 [13]
  Activity: inactive
HCT-116 [14]
  Activity: inactive
HCT-116 [15]
  Activity: inactive
HCT-116 [16]
  Activity: Active
HCT-116 [17]
  Activity: Active
HCT-116 [18]
  Activity: Dose-dependent-effect
HCT-116 [19]
  fold change (FC): 1.7
HCT-116 [20]
  fold change (FC): 2.1
HCT-116 [21]
  Activity: Active
HCT-116 [22]
  Activity: 69.89%
HCT-116 [23]
  Activity: 18.4%
HCT-116 [24]
  Activity: 10.2%
HCT-116 [25]
  viability at 5 µM: 61.3%
HCT-116 [26]
  Activity: 19.39%
HCT-116 [27]
  viability at 10 µM: 55.5%
HCT-116 [28]
  Activity: 23.04%
HCT-116 [29]
  Activity: Active
HCT-116 [30]
  Activity: Active
HCT-116 [31]
  Activity: Active
